Laboratory results from the supplement of paper PMC5908809.

What was measured:
[1] = test system: normal NK cells expanded with K562-aAPC; experiment: drug sensitivity score (DSS) (DSS units); higher = more sensitive; extreme values may be limits of the assay; settings: 72 h; IL-2 2.5 ng/mL
Protocol: (§1)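 Drug sensitivity and resistance testing on K562-aAPC-expanded normal NK cells: 5 concentrations (10-fold steps over a 10,000-fold range), 72 h at 37 °C, viability by CellTiter-Glo normalised to DMSO and benzethonium chloride controls; DSS from the fitted curve.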

[2] = test system: NK-YS (IL-2 2.5 ng/mL); experiment: as above; settings: 72 h
[3] = test system: KHYG-1 (IL-2 2.5 ng/mL); experiment: as above; settings: 72 h
[4] = test system: normal primary NK cells, pool 1 (3 donors), resting (IL-2 0 ng/mL); experiment: as above; settings: 72 h
[5] = test system: normal primary NK cells, pool 1 (3 donors) (IL-2 2.5 ng/mL); experiment: as above; settings: 72 h
[6] = test system: YT (IL-2 2.5 ng/mL); experiment: as above; settings: 72 h
[7] = test system: DERL-7 (IL-2 2.5 ng/mL); experiment: as above; settings: 72 h
[8] = test system: KAI3 (IL-2 2.5 ng/mL); experiment: as above; settings: 72 h
[9] = test system: NKL (IL-2 2.5 ng/mL); experiment: as above; settings: 72 h
[10] = test system: SNK-6 (IL-2 2.5 ng/mL); experiment: as above; settings: 72 h
[11] = test system: IMC-1 (IL-2 20 ng/mL); experiment: as above; settings: 72 h
[12] = test system: normal primary NK cells, pool 3 (3 donors) (IL-2 2.5 ng/mL); experiment: as above; settings: 72 h
[13] = test system: NK-92 (IL-2 2.5 ng/mL); experiment: as above; settings: 72 h
[14] = test system: normal primary NK cells, pool 2 (3 donors) (IL-2 2.5 ng/mL); experiment: as above; settings: 72 h
[15] = test system: NK-YS (IL-2 2.5 ng/mL); experiment: percent inhibition of viability; higher = more inhibition; settings: 72 h
[16] = test system: KHYG-1 (IL-2 2.5 ng/mL); experiment: as above; settings: 72 h
[17] = test system: normal primary NK cells, pool 1 (3 donors), resting (IL-2 0 ng/mL); experiment: as above; settings: 72 h
[18] = test system: normal primary NK cells, pool 1 (3 donors) (IL-2 2.5 ng/mL); experiment: as above; settings: 72 h
[19] = test system: YT (IL-2 2.5 ng/mL); experiment: as above; settings: 72 h
[20] = test system: DERL-7 (IL-2 2.5 ng/mL); experiment: as above; settings: 72 h
[21] = test system: KAI3 (IL-2 2.5 ng/mL); experiment: as above; settings: 72 h
[22] = test system: NKL (IL-2 2.5 ng/mL); experiment: as above; settings: 72 h
[23] = test system: SNK-6 (IL-2 2.5 ng/mL); experiment: as above; settings: 72 h
[24] = test system: IMC-1 (IL-2 20 ng/mL); experiment: as above; settings: 72 h
[25] = test system: normal primary NK cells, pool 3 (3 donors) (IL-2 2.5 ng/mL); experiment: as above; settings: 72 h
[26] = test system: NK-92 (IL-2 2.5 ng/mL); experiment: as above; settings: 72 h
[27] = test system: normal primary NK cells, pool 2 (3 donors) (IL-2 2.5 ng/mL); experiment: as above; settings: 72 h
[28] = test system: normal NK cells expanded with K562-aAPC; experiment: as above; settings: 72 h, IL-2 2.5 ng/mL
Protocol: as §1

COc1cc(Nc2ncc3c(n2)-c2ccc(Cl)cc2C(c2c(F)cccc2OC)=NC3)ccc1C(=O)O [Alisertib] (max concentration tested 10000 nM)
Settings	drug sensitivity score
[1]	16.4
[2]	24.5
[3]	24.4
[4]	5.81
[5]	0
[6]	13.6
[7]	23.4
[8]	16
[9]	17.9
[10]	24.9
[11]	19.8
[12]	1.41
[13]	21.1
[14]	1.95

percent inhibition of viability [%]
Settings	1 nM	10 nM	100 nM	1000 nM	10000 nM
[15]	-8.82	18.6	67.4	75.4	71.3
[16]	-6.82	13.3	62.3	82.9	90.3
[17]	4.36	18.6	7.69	21.1	47.6
[18]	-6.59	4.27	6.91	0.99	12.4
[19]	-1.37	10.7	43.4	32.9	60.8
[20]	3.14	3.32	73.9	65.1	72.8
[21]	-7.42	6.5	38.4	56.8	73
[22]	-15.7	-12.7	54.1	31.1	62.9
[23]	-9.82	4.71	73.7	81.3	84.4
[24]	-9.95	3	42.5	76.7	88
[25]	4.24	-4.25	17.1	4.71	23
[26]	-1.61	21.5	53.4	63.6	77.1
[27]	-1.45	-4.51	12.5	7.67	29.6
[28]	-8.29	-10.5	39	46	63.8

CN(C)c1nc(N(C)C)nc(N(C)C)n1 [Altretamine] (max concentration tested 10000 nM)
Settings	drug sensitivity score
[1]	0
[2]	0.51
[3]	0
[4]	2.84
[5]	0
[6]	0
[7]	0
[8]	4.61
[9]	0
[10]	0
[11]	0
[12]	0
[13]	0
[14]	0

percent inhibition of viability [%]
Settings	1 nM	10 nM	100 nM	1000 nM	10000 nM
[15]	1.59	-1.58	1.2	11.7	9.31
[16]	-7.38	-7.34	-6.09	-2.99	-6.61
[17]	-0.78	-0.59	9.13	16.1	26
[18]	-5.08	-6.48	-0.04	-1.59	3.54
[19]	-3.72	-5.67	-6.12	-0.77	-8.31
[20]	-4.53	-2.77	0.97	2.22	0.81
[21]	3.52	10.7	11.4	24.1	24.6
[22]	-10	-9.91	-10.4	1.45	1.87
[23]	-4.42	-8.89	-0.39	6.56	-2.57
[24]	-2.71	0.47	-4.67	-2.63	-6.93
[25]	-9.05	-7.82	-1.85	-3.99	3.69
[26]	-14.2	-12.6	-6.86	-1.41	-0.2
[27]	-3.77	-3.94	-0.13	0	1.61
[28]	-2.99	-3.76	0.47	-2.02	-2.72

CN1CC[C@H](c2c(O)cc(O)c3c(=O)cc(-c4ccccc4Cl)oc23)[C@H](O)C1 [Alvocidib] (max concentration tested 10000 nM)
Settings	drug sensitivity score
[1]	18.4
[2]	22.1
[3]	22.6
[4]	15.8
[5]	20.4
[6]	22.6
[7]	21.2
[8]	26.8
[9]	23
[10]	18.3
[11]	16.6
[12]	21.3
[13]	23.4
[14]	21.1

percent inhibition of viability [%]
Settings	1 nM	10 nM	100 nM	1000 nM	10000 nM
[15]	-0.27	3.87	33.1	98.8	103
[16]	3.43	-0.43	31.6	103	106
[17]	6.48	-25.6	-4.81	88.6	91.6
[18]	-0.02	-24.2	17.8	96.8	97.3
[19]	1.4	6.09	33.3	101	104
[20]	-0.06	-8.43	20	99.6	101
[21]	-3.44	8.97	69.4	99.3	104
[22]	-9.8	1.18	36	101	109
[23]	16.1	27.2	40	54.8	50.7
[24]	-6.84	-2.57	-23.3	98.5	100
[25]	-16.4	-9.75	22.2	97.3	98.7
[26]	1.2	-10.9	40.2	99.5	104
[27]	-15.2	-10.6	25.6	93.8	95.7
[28]	-1.75	-1.8	2.89	100	101

CCS(=O)(=O)N1CC(CC#N)(n2cc(-c3ncnc4[nH]ccc34)cn2)C1 [Baricitinib] (max concentration tested 2500 nM)
Settings	drug sensitivity score
[1]	20.2
[2]	13.7
[3]	23.9
[4]	0
[5]	14.7
[6]	11.6
[7]	19
[8]	24.6
[9]	26.3
[10]	12.8
[11]	7.47
[12]	10.4
[13]	15.6
[14]	13.3

percent inhibition of viability [%]
Settings	0.25 nM	2.5 nM	25 nM	250 nM	2500 nM
[15]	-8.38	-2.38	20.7	60.4	74.6
[16]	-8.72	1.48	46.9	106	109
[17]	0.1	4.62	4.85	2.89	12.1
[18]	-7.54	2.7	26.4	61.7	74.2
[19]	-5.41	-0.41	7.96	54.3	86.4
[20]	2.21	8.22	35.1	77.5	101
[21]	4.12	13.4	55.5	95.9	99.2
[22]	6.63	24.6	64.2	84.6	103
[23]	-16.6	-24.9	5.7	64.8	68.9
[24]	-4.87	-4.53	-11.2	16.2	87.2
[25]	2.14	-2.13	9.5	48.8	70.4
[26]	-7.1	-0.82	23.4	68	97.8
[27]	-1.68	0.38	17.6	60.4	68.1
[28]	0.8	2.05	31	89.9	99.7

N#CC(c1ccnc(OCc2ccc(CN3CCOCC3)cc2)n1)c1nc2ccccc2s1 (stereo not given) [Bentamapimod] (max concentration tested 10000 nM)
Settings	drug sensitivity score
[1]	3.1
[2]	4.74
[3]	5.69
[4]	0
[5]	0
[6]	5.2
[7]	4.97
[8]	4.12
[9]	6.1
[10]	0
[11]	4.25
[12]	0.34
[13]	4.21
[14]	1.6

percent inhibition of viability [%]
Settings	1 nM	10 nM	100 nM	1000 nM	10000 nM
[15]	-3.99	-3.72	3.63	20.3	47.6
[16]	-0.61	-1.53	4.6	13.5	64
[17]	3.62	7.45	-14.2	-14.4	-16.2
[18]	-3.1	-0.66	-15.6	-7.74	4.64
[19]	-4.27	-0.56	3.3	13.5	56.8
[20]	-1.64	-1.25	-0.32	14.8	51.5
[21]	-1.88	-7.11	-2.63	14.7	40.9
[22]	-15.9	-16.8	-9.05	13.2	71.2
[23]	8.11	-3.58	-13.1	-25.4	8.78
[24]	0.67	-4.76	0.93	6.64	58.2
[25]	-6.62	-9.78	-6.35	-8.64	19.9
[26]	-0.51	-7.45	-6.19	10.8	47.6
[27]	-16.9	-6.81	-3.2	-3.66	38.2
[28]	1.11	-7.13	0.02	9.12	35.7
